Source: the supplement of paper PMC10627819

Columns and labels:
S. aureus Newman [1] = assay: fitness (endpoint OD595 vs no drug) (fraction); higher = more growth; settings: one replicate
Method in brief: (§1)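 Bacterial fitness was scored as optical density at the stationary-phase transition relative to the robust mean of no-drug control wells. Scores are capped at 1. The growth data were OD595 readings every 30 min for 14 h at 37 °C, background-subtracted against the first reading, from 384-well plates inoculated at OD595 0.01 in TSB, LB Lennox or CY.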

B. subtilis 168 [2] = assay: as above
Method in brief: as §1

S. aureus Newman [3] = assay: Bliss interaction score (quartile over a dose matrix) (fitness difference); higher = more antagonism (negative = synergy)
Method in brief: (§2)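 The Bliss score was calculated by subtracting the expected fitness, the product of single-drug values, from the observed fitness. OD595 at entry into stationary phase, over the plate's robust no-drug mean and capped at 1, served as the fitness readout. Single-drug values were inferred from combination data, and scores are summarised by quartiles across technical, biological and donor/recipient replicates.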

B. subtilis 168 [4] = assay: as above
Method in brief: as §2

S. aureus DSM 20231 = assay: as above
Method in brief: as §2

S. pneumoniae D39V = assay: as above
Method in brief: as §2
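Wherever Bliss interaction score (quartile over a dose matrix) is given: first quartile when negative (synergy) and third quartile when positive (antagonism).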

CO/N=C(\C(=O)N[C@@H]1C(=O)N2C(C(=O)O)=C(COC(N)=O)CS[C@H]12)c1ccco1 [Cefuroxime] + CCN(CC)CCOC(=O)c1ccc(N)cc1 [Procaine]
fitness
Settings	first compound 0.04875 µg/mL	first compound 0.0975 µg/mL	first compound 0.195 µg/mL
B. subtilis 168 [2], partner 85.5 µg/mL	0.756	0.685	0.527
B. subtilis 168 [2], partner 171 µg/mL	0.762	0.65	0.512
B. subtilis 168 [2], partner 342 µg/mL	0.75	–	0.519
S. aureus Newman [1], partner 85.5 µg/mL	0.953	0.92	0.904
S. aureus Newman [1], partner 171 µg/mL	0.962	0.904	0.905
S. aureus Newman [1], partner 342 µg/mL	0.947	0.907	0.902

fitness, B. subtilis 168 [2], one replicate
Settings	first compound 1.562 µg/mL	first compound 3.125 µg/mL	first compound 6.25 µg/mL
partner 85.5 µg/mL	0.348	0.28	0.225
partner 171 µg/mL	0.288	0.256	0.153
partner 342 µg/mL	0.293	0.233	0.202

Settings	Bliss interaction score
B. subtilis 168 [4]	0.0619
S. aureus DSM 20231	0.0947
S. aureus Newman [3]	-0.0324
S. pneumoniae D39V	-0.0452

CO/N=C(\C(=O)N[C@@H]1C(=O)N2C(C(=O)O)=C(COC(N)=O)CS[C@H]12)c1ccco1 [Cefuroxime] + Cc1cc(NS(=O)(=O)c2ccc(N)cc2)no1 [Sulfamethoxazol]
fitness
Settings	first compound 0.04875 µg/mL	first compound 0.0975 µg/mL	first compound 0.195 µg/mL
B. subtilis 168 [2], partner 1 µg/mL	0.708	0.67	0.404
B. subtilis 168 [2], partner 2 µg/mL	0.709	0.632	0.398
B. subtilis 168 [2], partner 4 µg/mL	0.687	0.636	0.5
S. aureus Newman [1], partner 1 µg/mL	≥ 1	0.954	0.879
S. aureus Newman [1], partner 2 µg/mL	0.953	0.966	0.836
S. aureus Newman [1], partner 4 µg/mL	0.986	0.935	0.84

fitness, B. subtilis 168 [2], one replicate
Settings	first compound 0.195 µg/mL	first compound 0.39 µg/mL	first compound 0.78 µg/mL	first compound 1.562 µg/mL	first compound 3.125 µg/mL	first compound 6.25 µg/mL
partner 0.5 µg/mL	0.405	0.438	0.356	–	–	–
partner 1 µg/mL	–	0.0396	0.107	0.267	0.221	0.202
partner 2 µg/mL	–	0.29	0.262	0.251	0.198	0.132
partner 4 µg/mL	–	–	–	0.252	0.206	0.162

Settings	Bliss interaction score
B. subtilis 168 [4]	-0.0536
S. aureus DSM 20231	0.111
S. aureus Newman [3]	-0.0351
S. pneumoniae D39V	-0.0409
